From patent US20250311727A1, “SUBSTITUTED 2-AMINOAZINES AND SALTS THEREOF, AND USE THEREOF AS HERBICIDAL ACTIVE SUBSTANCES” (BAYER AKTIENGESELLSCHAFT, priority 2022, published 2025)

Legend:
Format in all cases: in vivo
Echinochloa crus-galli [1] = experiment: Pre-emergence herbicide efficacy at 320 g/ha, ECHCG; details: scored visually after about 3 weeks vs untreated controls, 100% = plants have died
How it was run: (§1)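 Seeds were sown in sandy loam and covered with soil; WP or EC formulations were then sprayed onto the soil surface at 320 g/ha in 600 L/ha water with 0.5% additive. After about 3 weeks in the greenhouse, efficacy was scored visually as % versus untreated controls (100% = plants dead, 0% = like control).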

Amaranthus retroflexus [2] = experiment: Post-emergence herbicidal efficacy at 80 g/ha, AMARE; details: rated visually after about 3 weeks vs untreated controls, 100% = plants have died
How it was run: (§2)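 Weeds grown in sandy loam under greenhouse conditions and sprayed post-emergence at the one-leaf stage (2–3 weeks after sowing) with WP or EC formulations plus 0.5% additive, 600 l/ha water. Activity scored visually about 3 weeks later versus untreated controls (0% = like control, 100% = plants dead).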

Viola tricolor [3] = experiment: Post-emergence herbicidal efficacy at 80 g/ha, VIOTR; details: rated visually after about 3 weeks vs untreated controls, 100% = plants have died
How it was run: as §2

Abutilon theophrasti [4] = experiment: Post-emergence herbicidal efficacy at 320 g/ha, ABUTH; details: rated visually after about 3 weeks vs untreated controls, 100% = plants have died
How it was run: (§3)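 Weeds grown in sandy loam in a greenhouse, both monocot and dicot species, and sprayed post-emergence at the one-leaf stage, 2–3 weeks after sowing. Spray was a WP or EC formulation with 0.5% additive in 600 L/ha water. Efficacy rated visually after about 3 weeks against untreated controls (0% = like control, 100% = plants dead).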

Abutilon theophrasti [5] = experiment: Pre-emergence herbicide efficacy at 320 g/ha, ABUTH; details: scored visually after about 3 weeks vs untreated controls, 100% = plants have died
How it was run: as §1

Kochia scoparia [6] = experiment: Post-emergence herbicidal efficacy at 80 g/ha, KCHSC; details: rated visually after about 3 weeks vs untreated controls, 100% = plants have died
How it was run: as §2

Digitaria sanguinalis [7] = experiment: Post-emergence herbicidal efficacy at 320 g/ha, DIGSA; details: rated visually after about 3 weeks vs untreated controls, 100% = plants have died
How it was run: as §3

Digitaria sanguinalis [8] = experiment: Pre-emergence herbicide efficacy at 320 g/ha, DIGSA; details: scored visually after about 3 weeks vs untreated controls, 100% = plants have died
How it was run: as §1

Setaria viridis [9] = experiment: Pre-emergence herbicide efficacy at 80 g/ha, SETVI
How it was run: (§4)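 Pre-emergence test: pots sown with weed seeds, then compound (WP or EC) sprayed on the covering soil as aqueous suspension/emulsion with 0.5% additive at 600 l/ha water, here 80 g/ha. Greenhouse growth for about 3 weeks. Efficacy scored visually versus untreated controls, 0% (as control) to 100% (plants died).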

Poa annua [10] = experiment: Post-emergence herbicidal efficacy at 320 g/ha, POAAN; details: rated visually after about 3 weeks vs untreated controls, 100% = plants have died
How it was run: as §3

Veronica persica [11] = experiment: Post-emergence herbicidal efficacy at 320 g/ha, VERPE; details: rated visually after about 3 weeks vs untreated controls, 100% = plants have died
How it was run: as §3

Stellaria media [12] = experiment: Post-emergence herbicidal efficacy at 320 g/ha, STEME; details: rated visually after about 3 weeks vs untreated controls, 100% = plants have died
How it was run: as §3

Veronica persica [13] = experiment: Pre-emergence herbicide efficacy at 320 g/ha, VERPE; details: scored visually after about 3 weeks vs untreated controls, 100% = plants have died
How it was run: as §1

Kochia scoparia [14] = experiment: Pre-emergence herbicide efficacy at 320 g/ha, KCHSC; details: scored visually after about 3 weeks vs untreated controls, 100% = plants have died
How it was run: as §1

Amaranthus retroflexus [15] = experiment: Pre-emergence herbicide efficacy at 80 g/ha, AMARE; details: scored visually after about 3 weeks vs untreated controls, 100% = plants have died
How it was run: as §4

Poa annua [16] = experiment: Pre-emergence herbicide efficacy at 320 g/ha, POAAN; details: scored visually after about 3 weeks vs untreated controls, 100% = plants have died
How it was run: as §1

Setaria viridis [17] = experiment: Pre-emergence herbicide efficacy at 320 g/ha, SETVI; details: scored visually after about 3 weeks vs untreated controls, 100% = plants have died
How it was run: as §1

Kochia scoparia [18] = experiment: Pre-emergence herbicide efficacy at 80 g/ha, KCHSC; details: scored visually after about 3 weeks vs untreated controls, 100% = plants have died
Source text: (§5) Unwanted plants/weeds: • ABUTH: Abutilon theophrasti • ALOMY: Alopecurus myosuroides • AMARE: Amaranthus retroflexus • DIGSA: Digitaria sanguinalis • ECHCG: Echinochloa crus-galli • KCHSC: Kochia scoparia • LOLRI: Lolium rigidum • MATIN: Matricaria inodora • POAAN: Poa annua • POLCO: Polygonum convolvulus • SETVI: Setaria viridis • STEME: Stellaria media • VERPE: Veronica persica • VIOTR: Viola tricolor A. Post-Emergence Herbicidal Efficacy at 320 g/ha
(§6) Seeds of monocotyledonous and dicotyledonous weed plants and crop plants were placed in plastic or organic planting pots and covered with soil. The compounds of the invention, formulated in the form of wettable powders (WP) or as emulsion concentrates (EC), were then applied to the surface of the covering soil as aqueous suspension or emulsion with addition of 0.5% additive at a water application rate equivalent to 600 l/ha. After the treatment, the pots were placed in a greenhouse and kept under good growth conditions for the test plants. After about 3 weeks, the efficacy of the preparations was scored visually in comparison with untreated controls as percentages. For example, 100% activity=the plants have died, 0% activity=like control plants.
(§7) Tables D1 to D12 below show the effects of selected compounds of the general formula (I) according to Table 1 on various harmful plants and an application rate corresponding to 80 g/ha, which were obtained by the experimental procedure mentioned above.

Viola tricolor [19] = experiment: Pre-emergence herbicide efficacy at 80 g/ha, VIOTR
How it was run: as §4

Echinochloa crus-galli [20] = experiment: Post-emergence herbicidal efficacy at 320 g/ha, ECHCG; details: rated visually after about 3 weeks vs untreated controls, 100% = plants have died
How it was run: as §3

Polygonum convolvulus = experiment: Pre-emergence herbicide efficacy at 80 g/ha, POLCO; details: scored visually after about 3 weeks vs untreated controls, 100% = plants have died
Source text: as §5, §6, §7

Veronica persica [21] = experiment: Post-emergence herbicidal efficacy at 80 g/ha, VERPE; details: rated visually after about 3 weeks vs untreated controls, 100% = plants have died
How it was run: as §2

Digitaria sanguinalis [22] = experiment: Pre-emergence herbicide efficacy at 80 g/ha, DIGSA; details: scored visually after about 3 weeks vs untreated controls, 100% = plants have died
How it was run: as §4

Stellaria media [23] = experiment: Pre-emergence herbicide efficacy at 320 g/ha, STEME; details: scored visually after about 3 weeks vs untreated controls, 100% = plants have died
How it was run: as §1

Amaranthus retroflexus [24] = experiment: Pre-emergence herbicide efficacy at 320 g/ha, AMARE; details: scored visually after about 3 weeks vs untreated controls, 100% = plants have died
How it was run: as §1

Lolium rigidum = experiment: Pre-emergence herbicide efficacy at 320 g/ha, LOLRI; details: scored visually after about 3 weeks vs untreated controls, 100% = plants have died
Source text: as §5
(§8) Seeds of mono- and dicotyledonous weed plants were placed in plastic pots in sandy loam soil (doubly sown with one species each of mono- or dicotyledonous weed plants per pot) and covered with soil. The compounds of the invention, formulated in the form of wettable powders (WP) or as emulsion concentrates (EC), were then applied to the surface of the covering soil as aqueous suspension or emulsion with addition of 0.5% additive at a water application rate of 600 litres per hectare (converted). After the treatment, the pots were placed in a greenhouse and kept under good growth conditions for the test plants. After about 3 weeks, the efficacy of the preparations was scored visually in comparison with untreated controls as percentages.
(§9) For example, 100% activity=the plants have died, 0% activity=like control plants.
(§10) Tables C1 to C12 below show the effects of selected compounds of the general formula (I) according to Table 1 on various harmful plants and at an application rate corresponding to 320 g/ha, which were obtained by the trial procedure specified above.

Kochia scoparia [25] = experiment: Post-emergence herbicidal efficacy at 320 g/ha, KCHSC; details: rated visually after about 3 weeks vs untreated controls, 100% = plants have died
How it was run: as §3

Matricaria inodora = experiment: Pre-emergence herbicide efficacy at 320 g/ha, MATIN; details: scored visually after about 3 weeks vs untreated controls, 100% = plants have died
Source text: as §5, §8, §9, §10

Amaranthus retroflexus [26] = experiment: Post-emergence herbicidal efficacy at 320 g/ha, AMARE; details: rated visually after about 3 weeks vs untreated controls, 100% = plants have died
How it was run: as §3

Setaria viridis [27] = experiment: Post-emergence herbicidal efficacy at 320 g/ha, SETVI; details: rated visually after about 3 weeks vs untreated controls, 100% = plants have died
Source text: as §5
Seeds of mono- and dicotyledonous weed plants were placed in plastic pots in sandy loam soil (doubly sown with in each case one species of mono- or dicotyledonous weed plants per pot), covered with soil and cultivated in a greenhouse under controlled growth conditions. 2 to 3 weeks after sowing, the test plants were treated at the one-leaf stage. The compounds of the invention, formulated in the form of wettable powders (WP) or as emulsion concentrates (EC), were applied to the green parts of the plants as aqueous suspension or emulsion with addition of 0.5% additive at a water application rate equivalent to 600 litres per hectare. After the test plants had been kept in the greenhouse under optimum growth conditions for about 3 weeks, the activity of the preparations was rated visually in comparison to untreated controls.
as §9
Tables A1 to A10 below show the effects of selected compounds of the general formula (I) according to Table 1 on various harmful plants and at an application rate corresponding to 320 g/ha, which were obtained by the trial procedure specified above.

Veronica persica [28] = experiment: Pre-emergence herbicide efficacy at 80 g/ha, VERPE
How it was run: as §4

## N#Cc1cccc(Nc2ncc(Cl)cn2)c1-n1cc(C(F)(F)F)cn1 [Example 1-38, 3-(5-Chloropyrimidin-2-ylamino)-2-(4-(trifluoromethyl)-1H-pyrazol-1-yl)benzonitrile]
Echinochloa crus-galli [1]
  Pre-emergence efficacy at 320 g/ha against ECHCG in %: 90%
Amaranthus retroflexus [2]
  Post-emergence efficacy at 80 g/ha against AMARE in %: 100%
Viola tricolor [3]
  Post-emergence efficacy at 80 g/ha against VIOTR in %: 100%
Abutilon theophrasti [4]
  Post-emergence efficacy at 320 g/ha against ABUTH in %: 90%
Abutilon theophrasti [5]
  Pre-emergence efficacy at 320 g/ha against ABUTH in %: 90%
Kochia scoparia [6]
  Post-emergence efficacy at 80 g/ha against KCHSC in %: 100%
Digitaria sanguinalis [7]
  Post-emergence efficacy at 320 g/ha against DIGSA in %: 90%
Digitaria sanguinalis [8]
  Pre-emergence efficacy at 320 g/ha against DIGSA in %: 100%
Setaria viridis [9]
  Pre-emergence efficacy against SETVI: 100%
Poa annua [10]
  Post-emergence efficacy at 320 g/ha against POAAN in %: 90%
Veronica persica [11]
  Post-emergence efficacy at 320 g/ha against VERPE in %: 100%
Stellaria media [12]
  Post-emergence efficacy at 320 g/ha against STEME in %: 100%
Veronica persica [13]
  Pre-emergence efficacy at 320 g/ha against VERPE in %: 100%
Kochia scoparia [14]
  Pre-emergence efficacy at 320 g/ha against KCHSC in %: 90%
Amaranthus retroflexus [15]
  Pre-emergence efficacy at 80 g/ha against AMARE in %: 100%
Poa annua [16]
  Pre-emergence efficacy at 320 g/ha against POAAN in %: 100%
Setaria viridis [17]
  Pre-emergence efficacy at 320 g/ha against SETVI in %: 100%
Kochia scoparia [18]
  Pre-emergence efficacy at 80 g/ha against KCHSC in %: 100%
Viola tricolor [19]
  Pre-emergence efficacy against VIOTR: 100%
Echinochloa crus-galli [20]
  Post-emergence efficacy at 320 g/ha against ECHCG in %: 100%
Polygonum convolvulus
  Pre-emergence efficacy at 80 g/ha against POLCO in %: 100%
Veronica persica [21]
  Post-emergence efficacy at 80 g/ha against VERPE in %: 90%
Digitaria sanguinalis [22]
  Pre-emergence efficacy at 80 g/ha against DIGSA in %: 100%
Stellaria media [23]
  Pre-emergence efficacy at 320 g/ha against STEME in %: 100%
Amaranthus retroflexus [24]
  Pre-emergence efficacy at 320 g/ha against AMARE in %: 100%
Lolium rigidum
  Pre-emergence efficacy at 320 g/ha against LOLRI in %: 90%
Kochia scoparia [25]
  Post-emergence efficacy at 320 g/ha against KCHSC in %: 100%
Matricaria inodora
  Pre-emergence efficacy at 320 g/ha against MATIN in %: 100%
Amaranthus retroflexus [26]
  Post-emergence efficacy at 320 g/ha against AMARE in %: 100%
Setaria viridis [27]
  Post-emergence efficacy at 320 g/ha against SETVI in %: 90%
Veronica persica [28]
  Pre-emergence efficacy against VERPE: 90%
